Molecules are shown by their SMILES.

This assay concerns the target human Autotaxin protein (Homo sapiens, UniProt Q13822). In words: Evaluation of inhibitory activity against human Autotaxin protein (18:1 LysoPC substrate, choline assay kit, absorbance 570 nm). Particulars: compound at 500 nM, 2 hours at 37° C. Type of assay: biochemical. On the procedure: The solution of each synthesized compound (80 uM, 100% dimethyl sulfoxide) was sequentially diluted 5 times with dimethyl sulfoxide to prepare 6 concentrations. Each concentration of compound was diluted two-fold with 1× test buffer (50 mM Tris-Cl (pH 8.0), 5 mM KCl, 1 mM CaCl2), 1 mM MgCl2, 140 mM NaCl, deionized water, 1 mg/mL BSA), and 1 uL (1.25% dimethyl sulfoxide) of this diluted mixture was dispensed into each well of a 96 well clear round bottom plate. 9 uL of 1× test buffer were added to each well, followed by the addition of 20 uL of 240 nM human Autotaxin protein (buffer: 50 mM Tris-HCl, pH 8.0, with 150 mM sodium chloride and 20% glycerol). 10 uL of sonicated 360 uM 18:1 LysoPC (diluted with 1× test buffer) were added to each well. The reaction was performed for 2 hours in a shaking incubator at 37° C., and a secondary reaction mixture (choline assay kit, KA1662) (65 uL of 1× test buffer: 1 uL of choline oxidase: 1 uL of dye probe) was prepared. 60 uL of the secondary reaction mixture were added to the reaction plate and reacted on a shaker for 30 minutes. Using a SpectraMax iD3 microplate reader, the absorbance was measured at a wavelength of 570 nm. The percentage of inhibition activity (% inhibition) was calculated by the Formula: (1−Absorbancetestgroup/Absorbancecontrol group)×100.
Turning to `Fc1cc2c(cc1F)CC(Nc1ncc(-c3nnc(N4CCC(n5cnnn5)CC4)o3)cn1)C2` [Example 28, 5-(5-(4-(1H-Tetrazol-1-yl)piperidin-1-yl)-1,3,4-oxadiazol-2-yl)-N-(5,6-difluoro-2,3-dihydro-1H-inden-2-yl)pyrimidin-2-amine], testing at 0.5 µM gave an inhibition of 52.5%.

In the case of `Cc1nn[nH]c1C1CCN(c2nnc(-c3cnc(NC4Cc5cc(F)c(F)cc5C4)nc3)o2)CC1` [Example 29, N-(5,6-difluoro-2,3-dihydro-1H-inden-2-yl)-5-(5-(4-(4-methyl-1H-1,2,3-triazol-5-yl)piperidin-1-yl)-1,3,4-oxadiazol-2-yl)pyrimidin-2-amine], 0.5 µM produced 90.8% inhibition.

Regarding `O=C(/C=C/c1cnc(NC2Cc3cc(F)c(F)cc3C2)nc1)N1CCC(c2cnn[nH]2)CC1` [Example 30, (E)-1-(4-(1H-1,2,3-triazol-5-yl)piperidin-1-yl)-3-(2-((5,6-difluoro-2,3-dihydro-1H-inden-2-yl)amino)pyrimidin-5-yl)prop-2-en-1-one], the inhibition (as a rule, the share of the control response that was lost under treatment) at 0.5 µM was 97.8%.

Compound `c1ccc(Cn2nncc2C2CCN(c3cnc(-c4cnc(NC5Cc6ccccc6C5)nc4)o3)CC2)cc1` [Example 31, 5-(5-(4-(1-Benzyl-1H-1,2,3-triazol-5-yl)piperidin-1-yl)oxazol-2-yl)-N-(2,3-dihydro-1H-inden-2-yl)pyrimidin-2-amine] gave an inhibition at 0.5 µM of 8.1%.

In turn, `CN(c1ncc(-c2nnc(N3CCC(c4cnn[nH]4)CC3)o2)cn1)C1Cc2cc(F)c(F)cc2C1` [Example 32, 5-(5-(4-(1H-1,2,3-triazol-5-yl)piperidin-1-yl)-1,3,4-oxadiazol-2-yl)-N-(5,6-difluoro-2,3-dihydro-1H-inden-2-yl)-N-methylpyrimidin-2-amine] registered an inhibition at 0.5 µM of 34.3%.

The compound `Cn1nncc1C1CCN(c2nnc(-c3cnc(NC4Cc5cc(F)c(F)cc5C4)nc3)o2)CC1` [Example 33, N-(5,6-difluoro-2,3-dihydro-1H-inden-2-yl)-5-(5-(4-(1-methyl-1H-1,2,3-triazol-5-yl)piperidin-1-yl)-1,3,4-oxadiazol-2-yl)pyrimidin-2-amine] returned an inhibition at 0.5 µM of 78.4%.

With `Cn1cc(C2CCN(c3nnc(-c4cnc(NC5Cc6cc(F)c(F)cc6C5)nc4)o3)CC2)nn1` [Example 34, N-(5,6-difluoro-2,3-dihydro-1H-inden-2-yl)-5-(5-(4-(1-methyl-1H-1,2,3-triazol-4-yl)piperidin-1-yl)-1,3,4-oxadiazol-2-yl)pyrimidin-2-amine], the inhibition at 0.5 µM stood at 17.3%.

For the compound `c1ccc2c(c1)CC(Nc1ncc(C3CC(N4CCC(c5cnn[nH]5)CC4)=NO3)cn1)C2` (stereo not drawn) [Example 35, N-indan-2-yl-5-[3-[4-(1H-triazol-5-yl)-1-piperidyl]-4,5-dihydroisoxazol-5-yl]pyrimidin-2-amine], the inhibition at 0.5 µM amounted to 96%.

`c1ccc2c(c1)CC(Nc1ncc(-c3cc(N4CCC(c5cnn[nH]5)CC4)no3)cn1)C2` [Example 36, 5-(3-(4-(1H-1,2,3-triazol-5-yl)piperidin-1-yl)isoxazol-5-yl)-N-(2,3-dihydro-1H-inden-2-yl)pyrimidin-2-amine] displayed an inhibition at 0.5 µM of 53.4%.

On to `Fc1cc2c(cc1F)CC(Nc1ncc(C3CC(N4CCC(c5cnn[nH]5)CC4)=NO3)cn1)C2` (stereo not drawn) [Example 37, N-(5,6-difluoroindan-2-yl)-5-[3-[4-(1H-triazol-5-yl)-1-piperidyl]-4,5-dihydroisoxazol-5-yl]pyrimidin-2-amine], for which the “inhibition (%) at 500 nM” value is 93.2%.

`Fc1cc2c(cc1F)CC(Nc1ncc(-c3cc(N4CCC(c5cnn[nH]5)CC4)no3)cn1)C2` [Example 38, 5-(3-(4-(1H-1,2,3-triazol-5-yl)piperidin-1-yl)isoxazol-5-yl)-N-(5,6-difluoro-2,3-dihydro-1H-inden-2-yl)pyrimidin-2-amine]: the inhibition at 0.5 µM stood at 53.2%.

For `Fc1ccc2c(c1)CC(Nc1ncc(C3CC(N4CCC(c5cnn[nH]5)CC4)=NO3)cn1)C2` (stereo not drawn) [Example 39, 5-(3-(4-(1H-1,2,3-triazol-5-yl)piperidin-1-yl)-4,5-dihydroisoxazol-5-yl)-N-(5-fluoro-2,3-dihydro-1H-inden-2-yl)pyrimidin-2-amine], 0.5 µM produced 97.2% inhibition.

On to `Fc1ccc2c(c1)CC(Nc1ncc(-c3cc(N4CCC(c5cnn[nH]5)CC4)no3)cn1)C2` (stereo not drawn) [Example 40, 5-(3-(4-(1H-1,2,3-triazol-5-yl)piperidin-1-yl)isoxazol-5-yl)-N-(5-fluoro-2,3-dihydro-1H-inden-2-yl)pyrimidin-2-amine], for which the inhibition at 0.5 µM came to 68.5%.

As for `Fc1cc(F)cc(CNc2ncc(C3CC(N4CCC(c5cnn[nH]5)CC4)=NO3)cn2)c1` (stereo not drawn) [Example 41, N-[(3,5-difluorophenyl)methyl]-5-[3-[4-(1H-triazol-5-yl)-1-piperidyl]-4,5-dihydroisoxazol-5-yl]pyrimidin-2-amine], the “inhibition (%) at 500 nM” value is given as 40.6%.

For `c1ccc(CNc2ncc(C3CC(N4CCC(c5cnn[nH]5)CC4)=NO3)cn2)cc1` (stereo not drawn) [Example 42, N-benzyl-5-[3-[4-(1H-triazol-5-yl)-1-piperidyl]-4,5-dihydroisoxazol-5-yl]pyrimidin-2-amine], the “inhibition (%) at 500 nM” value came out at 8.6%.

On to `Fc1ccc(CNc2ncc(C3CC(N4CCC(c5cnn[nH]5)CC4)=NO3)cn2)cc1F` (stereo not drawn) [Example 43, N-[(3,4-difluorophenyl)methyl]-5-[3-[4-(1H-triazol-5-yl)-1-piperidyl]-4,5-dihydroisoxazol-5-yl]pyrimidin-2-amine], for which the “inhibition (%) at 500 nM” value was 4.6%.

The compound `Clc1cc(Cl)cc(CNc2ncc(C3CC(N4CCC(c5cnn[nH]5)CC4)=NO3)cn2)c1` (stereo not drawn) [Example 44, 5-(3-(4-(1H-1,2,3-triazol-5-yl)piperidin-1-yl)-4,5-dihydroisoxazol-5-yl)-N-(3,5-dichlorobenzyl)pyrimidin-2-amine] gave an inhibition at 0.5 µM of 71.3%.

The compound `c1cc2c(cc1CNc1ncc(C3CC(N4CCC(c5cnn[nH]5)CC4)=NO3)cn1)OCO2` (stereo not drawn) [Example 45, 5-(3-(4-(1H-1,2,3-triazol-5-yl)piperidin-1-yl)-4,5-dihydroisoxazol-5-yl)-N-(benzo[d][1,3]dioxol-5-ylmethyl)pyrimidin-2-amine] came in with an inhibition at 0.5 µM of 1.6%.

Regarding `c1cc2c(cc1CNc1ncc(-c3cc(N4CCC(c5cnn[nH]5)CC4)no3)cn1)OCO2` [Example 46, N-(1,3-benzodioxol-5-ylmethyl)-5-[3-[4-(1H-triazol-5-yl)-1-piperidyl]isoxazol-5-yl]pyrimidin-2-amine], the “inhibition (%) at 500 nM” value stood at 1%.

In the case of `Clc1cc(Cl)cc(CCNc2ncc(C3CC(N4CCC(c5cnn[nH]5)CC4)=NO3)cn2)c1` (stereo not drawn) [Example 47, 5-(3-(4-(1H-1,2,3-triazol-5-yl)piperidin-1-yl)-4,5-dihydroisoxazol-5-yl)-N-(3,5-dichlorophenethyl)pyrimidin-2-amine], the inhibition at 0.5 µM is 29.2%.

In turn, `CS(=O)(=O)c1cccc(CNc2ncc(C3CC(N4CCC(c5cnn[nH]5)CC4)=NO3)cn2)c1` (stereo not drawn) [Example 48, 5-(3-(4-(1H-1,2,3-triazol-5-yl)piperidin-1-yl)-4,5-dihydroisoxazol-5-yl)-N-(3-(methylsulfonyl)benzyl)pyrimidin-2-amine] returned an inhibition at 0.5 µM of 3.4%.

Take `CS(=O)(=O)c1ccc(CNc2ncc(C3CC(N4CCC(c5cnn[nH]5)CC4)=NO3)cn2)cc1` (stereo not drawn) [Example 49, 5-(3-(4-(1H-1,2,3-triazol-5-yl)piperidin-1-yl)-4,5-dihydroisoxazol-5-yl)-N-(4-(methylsulfonyl)benzyl)pyrimidin-2-amine]: 0.5 µM produced 1.2% inhibition.

Take `c1ccc2c(c1)CC(Nc1ncc(C3CC(N4CCC(c5nnn[nH]5)CC4)=NO3)cn1)C2` (stereo not drawn) [Example 50, 5-(3-(4-(1H-tetrazol-5-yl)piperidin-1-yl)-4,5-dihydroisoxazol-5-yl)-N-(2,3-dihydro-1H-inden-2-yl)pyrimidin-2-amine]: the inhibition at 0.5 µM was 7%.

Compound `FC(F)c1nnc(C2CCN(C3=NOC(c4cnc(NC5Cc6ccccc6C5)nc4)C3)CC2)o1` (stereo not drawn) [Example 51, 5-(3-(4-(5-(Difluoromethyl)-1,3,4-oxadiazol-2-yl)piperidin-1-yl)-4,5-dihydroisoxazol-5-yl)-N-(2,3-dihydro-1H-inden-2-yl)pyrimidin-2-amine] yielded an inhibition at 0.5 µM of 13.2%.

Consider `Fc1cc2c(cc1F)CC(Nc1ncc(C3CC(N4CCC(c5nnn[nH]5)CC4)=NO3)cn1)C2` (stereo not drawn) [Example 52, 5-(3-(4-(1H-tetrazol-5-yl)piperidin-1-yl)-4,5-dihydroisoxazol-5-yl)-N-(5,6-difluoro-2,3-dihydro-1H-inden-2-yl)pyrimidin-2-amine], for which the inhibition at 0.5 µM stood at 4.8%.

`Fc1ccc2c(c1)CC(Nc1ncc(C3CC(N4CCC(c5nnc(C(F)(F)F)o5)CC4)=NO3)cn1)C2` (stereo not drawn) [Example 53, N-(5-fluoro-2,3-dihydro-1H-inden-2-yl)-5-(3-(4-(5-(trifluoromethyl)-1,3,4-oxadiazol-2-yl)piperidin-1-yl)-4,5-dihydroisoxazol-5-yl)pyrimidin-2-amine] yielded an inhibition at 0.5 µM of 10.2%.

`CC1CC(c2cnn[nH]2)CCN1c1nnc(-c2cnc(NC3Cc4cc(F)c(F)cc4C3)nc2)o1` (stereo not drawn) [Example 54, N-(5,6-difluoro-2,3-dihydro-1H-inden-2-yl)-5-(5-(2-methyl-4-(1H-1,2,3-triazol-5-yl)piperidin-1-yl)-1,3,4-oxadiazol-2-yl)pyrimidin-2-amine]: the inhibition at 0.5 µM was determined as 95.3%.

The values above are taken from US12145929B2, “Piperidine derivative and pharmaceutical composition for inhibiting autotaxin comprising same” (NEXTGEN BIOSCIENCE CO., LTD., priority 2021, dated 2024).
